Laboratory results: paper PMC8264504, “Identification of Koumine as a Translocator Protein 18 kDa Positive Allosteric Modulator for the Treatment of Inflammatory and Neuropathic Pain” (Frontiers in Pharmacology, 2021)

Key:
[1] = target: T1, mouse TSPO recombinant protein (Mus musculus, UniProt P50637); test: SPR multicycle kinetics, mouse TSPO in a lipid-free environment; assay type: binding; conditions: CM5 chip, anti-His capture, read-out: affinity to mouse TSPO
T1 construct: made in house; host or cells: Escherichia coli BL21(DE3) pLysS, pET15b vector
T1 sequence (P50637 whole entry): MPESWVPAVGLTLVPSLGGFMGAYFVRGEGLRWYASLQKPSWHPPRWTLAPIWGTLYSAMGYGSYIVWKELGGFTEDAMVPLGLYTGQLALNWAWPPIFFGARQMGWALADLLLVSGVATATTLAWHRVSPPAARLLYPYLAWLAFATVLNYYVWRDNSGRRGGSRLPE
Protocol: Cells of the BL21(DE3) pLysS Escherichia coli strain were transformed with the pET15b vector, from which the expression of mouse TSPO recombinant protein was induced by 1 mM isopropyl-1-thiol-β-D-galactopyranoside as previously described ([Robert and Lacapère, 2010]; [Senicourt et al., 2017]). Cells were harvested and resuspended in lysis buffer (150 mM NaCl and 50 mM HEPES-Na, pH 7.8) with the addition of 1 mg/ml lysozyme and sonicated thoroughly. The lysate was centrifuged at 15,000 g at 4°C for 20 min to pellet the insoluble inclusion bodies. The final pellet of inclusion bodies was solubilized in binding buffer (150 mM NaCl, 50 mM HEPES-Na, 1% SDS (wt/vol), pH 7.8) and was purified by the Ni-NTA gravity flow column.
SPR analyses were performed at 25°C with a Biacore T200 instrument. For proteoliposomes and liposomes (reference), they were immobilized on a series S L1 sensor chips. It is possible that the repeated regeneration steps in the multicycle kinetics process impairs the activity of TSPO proteoliposomes, thus we were unable to use multicycle kinetics to effectively determine the affinity of TSPO and its ligands. Therefore, the single cycle kinetics, which assumes to be as robust as the classical multicycle kinetics for measuring affinity, was used. Kinetic rate constants for the various analytes were determined using single cycle protocols where five serial 2-fold dilutions of the analytes were injected for 180 s without intervening regeneration, followed by a 300 s dissociation phase after the last injection. Interactions were measured at 30 μl/min. PBS, with addition of 1% DMSO (pH 7.4), was used as running buffer. Three consecutive 1 min injections with 10 μl/min of glycine HCl 3.0 at the end of each single-cycle kinetics regenerated the chip. For mouse TSPO in a lipid-free environment, affinity was measured according to established methods with minor modifications ([Zhang et al., 2015]). Briefly, HBS-EP buffer was used as the running buffer. […]

TSPO = target: TSPO; parameters: method as in Awad and Gavish, 1987; Verma et al., 1987; conditions: radioligand binding experiment results from literatures, ref Awad and Gavish, 1987, Verma et al.; cited from earlier work
[2] = target: T2, TSPO from rat cerebral cortex (Rattus norvegicus, UniProt P16257); test: 3H-PK11195 equilibrium binding in presence of koumine
T2 construct: from tissue; host or cells: rat (SD) cerebral cortex, crude mitochondrial/membrane pellet
T2 sequence (P16257 whole entry): as the sequence (P50637 whole entry) above, with P2S, E3Q, V67I, D77E, A110V, L113M, V149M, P168T counted along it
Protocol: (§1) Briefly, male SD rats (240 ± 10 g) were killed by decapitation, and the cerebral cortices were dissected. The tissues were homogenized in 10 volumes (ml/g) of 50 mM Tris HCl buffer containing 0.32 M sucrose (pH 7.4). The homogenates were centrifuged at 1,000 g for 10 min at 4°C. The resulting pellets were discarded, and the supernatants were centrifuged at 9,000 g for 15 min. The pellets were resuspended in 10 volumes of Tris HCl buffer containing 0.32 M sucrose (pH 7.4) and centrifuged at 13,000 g for 30 min, then resuspended in 10 volumes of Tris HCl buffer and centrifuged again at 13,000 g for 30 min. The final pellets were suspended in Tris HCl buffer and used in the binding assays. Protein concentrations were measured using the BCA Protein Assay Kit (ThermoFisher Scientific) according to the manufacturer’s instructions.
After incubation at 4°C for 2 h, the reaction was terminated by the addition of ice-cold 50 mM Tris HCl buffer (pH 7.4) followed by vacuum filtration through Filtermat A glass microfiber filters (pretreated with 0.2% polyethylenimine) using a Brandel cell harvester. The filters were washed rapidly, and radioactivity was determined by liquid scintillation spectrometry.

[3] = target: T2, TSPO from rat cerebral cortex; test: 3H-PK11195 dissociation kinetics; assay type: binding
Protocol: as §1
Then, samples were filtered through Filtermat A glass microfiber filters (pretreated with 0.2% polyethylenimine) using a Brandel cell harvester, and the radioactivities were measured at the indicated time points.

[4] = test system: TSPO from the rat cerebral cortex; parameters: method as in Jin, 2014; conditions: previous competitive binding assay; ref Jin, 2014; cited from earlier work

Compound	Kd [1]	Kd (TSPO)	effect on binding of 0.1 nM 3H-PK11195 ([2]; 10^−10 M and 10^−6 M koumine only)	effect on binding of 0.1 nM 3H-PK11195 ([2]; all concentrations of koumine, 10^−12–10^−3 M, not dose dependent)	dissociation rate of 3H-PK11195 relative to vehicle group ([3]; in presence of 10^−6 M koumine)	dissociation rate of 3H-PK11195 relative to vehicle group ([3]; in presence of 10^−10 M koumine)	effect on binding of 3H-PK11195 with TSPO [4]
CN1C(=O)CN=C(c2ccc(Cl)cc2)c2cc(Cl)ccc21 [Ro5-4864, reference compound]	170 ± 6.07 µM	0.0073 ± 0.0008 µM	–	–	–	–	–
C=C[C@@]12CN(C)[C@H]3C[C@]14C(=Nc1ccccc14)[C@H]1C[C@@H]2[C@@H]3CO1 [koumine]	97.4 ± 1.76 µM	–	significantly increased the binding	tended to increase the binding	72%	81%	significantly increased the binding
